Data from PMC4376724, “Differential Phenotypic and Functional Profiles of TcCA-2 -Specific Cytotoxic CD8^+ T Cells in the Asymptomatic versus Cardiac Phase in Chagasic Patients” (PLoS ONE, 2015).

Experiments:
[1] = test system: PBMCs from asymptomatic HLA-A*02:01 Chagas disease patients; test: HLA-A*02:01 restriction assay: peptide-pulsed K562-A2 cells as APC, IFN-γ secretion by patient PBMC; type: cell-based, human; details: range among patients with a positive response; K562-A2 pulsed with 1 mM peptide 1 h, 30 h co-culture; K562 level subtracted
Experimental: TAP-deficient T2 cells were used for the HLA-A*02:01 binding assays and the K562-A2 cells for the HLA-A*02:01 restriction assay. The cells were cultured in complete RPMI medium supplemented with 10% of inactivated Fetal Calf Serum (iFCS), 2 mM glutamine, and 100 U/ml penicillin. K562-A2 cells, expressing the HLA-A*02:01 molecule were cultured in the presence of […] of G-418, as previously described. The T2 and K562-A2 cells were kindly provided by Dr. Pedro Romero (University of Lausanne) and by Dr Peter Ponsaerts (University of Antwerp, with the permission of Dr. Cedrik Britten from Johanes Gutenberg-University Mainz), respectively.
(§1) For the screening of the recognition of TcCA-2 epitopes by Chagas disease patients, 10 HLA-A*02:01 adult patients in the asymptomatic phase of the disease (IND) were enrolled. For cytotoxicity, functional activity determinations and phenotypic characterization another group of 19 HLA-A*02:01 adults Chagas disease patients and 9 healthy donors were analyzed. These patients were at the chronic stage of the disease and were considered to be at the asymptomatic phase (IND, n = 8) if there was no evidence of having cardiac or gastrointestinal disorders. Chronic Chagas cardiomyopathy patients (CCC, n = 11) were stratified into G1 to G3 stages following Kuschnir classification according to clinical criteria and radiological, electrocardiographic and echocardiography analyses. The number of patients was the one recommended by the Hospital Ethical Committee. […] The patients were enrolled in both studies (functional and phenotypic characterization, IND n = 6 and CCC n = 7) when the available number of purified PBMC (limited by the cellular number isolated from each subject) was enough for both analyses. Another four CCC patients had to be enrolled to perform the phenotypic analysis in order to reach statistical significance.
Cytokine secretion (IL-4, IL-10, IL-6, IFN-γ, TNF-α) was determined in the supernatants of PBMC from Chagas disease patients and healthy donors, after in vitro stimulation with 1 μM of each peptide for 30 h at 37°C in RPMI supplemented with 10% iFBS as explained before. The secretion profile was determined by using a bead-based multiplex immunoassay system (Bio-Plex, Bio-Rad), following the manufacturer's instructions. The response was considered positive if an increase in the secretion of cytokines was at least three folds higher than the secretion by un-stimulated cells (basal secretion level) and at least, 4 pg/mL for IL-4, 2 pg/mL for IL-10, 15 pg/mL for IL-6 and 5 pg/mL for IFN-γ and TNF-α. The positive control consisted of 50 ng/mL Phorbol 12 myristate 13-acetate (PMA) and 500 ng/mL ionomycin (Sigma). Cytokine levels were quantified in each sample by using the Bio-Plex Manager software 4.1 (Bio-Rad). […]

[2] = test system: PBMC from HLA-A*02:01 Chagas disease patients and healthy donors; test: Cytokine secretion test (Bio-Plex multiplex immunoassay) in PBMC supernatants; type: cell-based, human; details: 1 μM peptide, 30 h, non-peptide control subtracted
Experimental: as §1
Cytokine secretion (IL-4, IL-10, IL-6, IFN-γ, TNF-α) was determined in the supernatants of PBMC from Chagas disease patients and healthy donors, after in vitro stimulation with 1 μM of each peptide for 30 h at 37°C in RPMI supplemented with 10% iFBS as explained before. The secretion profile was determined by using a bead-based multiplex immunoassay system (Bio-Plex, Bio-Rad), following the manufacturer's instructions. The response was considered positive if an increase in the secretion of cytokines was at least three folds higher than the secretion by un-stimulated cells (basal secretion level) and at least, 4 pg/mL for IL-4, 2 pg/mL for IL-10, 15 pg/mL for IL-6 and 5 pg/mL for IFN-γ and TNF-α. The positive control consisted of 50 ng/mL Phorbol 12 myristate 13-acetate (PMA) and 500 ng/mL ionomycin (Sigma). Cytokine levels were quantified in each sample by using the Bio-Plex Manager software 4.1 (Bio-Rad).
Functional analysis of the epitope-specific CD8^+ T cells was carried out by the determination of the secretion profile of IFN-γ, TNF-α, IL-4, IL10 and IL-6 cytokines. […] CD8^+ T cells from 2 out of 11 patients responded to stimulation with peptide TcCA-2_273-281 by secreting IL-6. […] There was no secretion of IL-4 and IL-10 in PBMC after stimulation with any one of the four TcCA-2 peptides (data not shown). IFN-γ, TNF-α and IL6 cytokines secretion levels were higher in patients at the asymptomatic phase of the disease than in Chagas patients with associated cardiomyopathy.

In the case of ALQVTNHRYL [TcCA-2_657-666], the INF-γ secretion range [1] is reported as 6.1 to 6.7 pg/mL, the IFNγ ([2]; PBMC of patient CCC I 770) is reported as 0 pg/mL and the IL6 ([2]; PBMC of patient CCC I 770) is reported as 1 pg/mL. It also gave a TNFα ([2]; PBMC of patient CCC I 770) of -6 pg/mL, an IFNγ ([2]; PBMC of patient CCC I 861) of 0 pg/mL and an IL6 ([2]; PBMC of patient CCC I 861) of -4 pg/mL. It also gave a TNFα ([2]; PBMC of patient CCC I 861) of -2 pg/mL, an IFNγ ([2]; PBMC of patient CCC I 884) of 0 pg/mL and an IL6 ([2]; PBMC of patient CCC I 884) of 0 pg/mL. The TNFα ([2]; PBMC of patient CCC I 884) was 0 pg/mL, the IFNγ ([2]; PBMC of patient CCC III 509) was 0 pg/mL and the IL6 ([2]; PBMC of patient CCC III 509) was -4 pg/mL. For the same sequence, the TNFα ([2]; PBMC of patient CCC III 509) was -5 pg/mL, the IFNγ ([2]; PBMC of patient IND 365) was 2 pg/mL and the IL6 ([2]; PBMC of patient IND 365) was 10 pg/mL. It also gave a TNFα ([2]; PBMC of patient IND 365) of 14 pg/mL, an IFNγ ([2]; PBMC of patient IND 388) of 2 pg/mL and an IL6 ([2]; PBMC of patient IND 388) of 2 pg/mL. For the same sequence, the TNFα ([2]; PBMC of patient IND 388) was -5 pg/mL, the IFNγ ([2]; PBMC of patient IND 510) was 0 pg/mL and the IL6 ([2]; PBMC of patient IND 510) was -3 pg/mL. The TNFα ([2]; PBMC of patient IND 510) was 1 pg/mL, the IFNγ ([2]; PBMC of patient IND 535) was 0 pg/mL and the IL6 ([2]; PBMC of patient IND 535) was -5 pg/mL. It also gave a TNFα ([2]; PBMC of patient IND 535) of -2 pg/mL, an IFNγ ([2]; PBMC of patient IND 571) of 1 pg/mL and an IL6 ([2]; PBMC of patient IND 571) of 0 pg/mL. For the same sequence, the TNFα ([2]; PBMC of patient IND 571) was 0 pg/mL, the IFNγ ([2]; PBMC of patient IND 917) was -1 pg/mL and the IL6 ([2]; PBMC of patient IND 917) was -17 pg/mL. The TNFα ([2]; PBMC of patient IND 917) was -17 pg/mL, the IFNγ ([2]; PBMC of subject HD 001) was -2 pg/mL and the IL6 ([2]; PBMC of subject HD 001) was 1 pg/mL. For the same sequence, the TNFα ([2]; PBMC of subject HD 001) was -6 pg/mL, the IFNγ ([2]; PBMC of subject HD 004) was 4 pg/mL and the IL6 ([2]; PBMC of subject HD 004) was -12 pg/mL. For the same sequence, the TNFα ([2]; PBMC of subject HD 004) was -1 pg/mL, the IFNγ ([2]; PBMC of subject HD 005) was 0 pg/mL and the IL6 ([2]; PBMC of subject HD 005) was -58 pg/mL. The TNFα ([2]; PBMC of subject HD 005) was -4 pg/mL, the IFNγ ([2]; PBMC of subject HD 006) was 3 pg/mL and the IL6 ([2]; PBMC of subject HD 006) was -5 pg/mL. It also gave a TNFα ([2]; PBMC of subject HD 006) of 1 pg/mL, an IFNγ ([2]; PBMC of subject HD 008) of -3 pg/mL and an IL6 ([2]; PBMC of subject HD 008) of 3 pg/mL. For the same sequence, the TNFα ([2]; PBMC of subject HD 008) was -21 pg/mL, the IFNγ ([2]; PBMC of subject HD 011) was 0 pg/mL and the IL6 ([2]; PBMC of subject HD 011) was -4 pg/mL. For the same sequence, the TNFα ([2]; PBMC of subject HD 011) was 0 pg/mL, the IFNγ ([2]; PBMC of subject HD 017) was 0 pg/mL and the IL6 ([2]; PBMC of subject HD 017) was 0 pg/mL. It also gave a TNFα ([2]; PBMC of subject HD 017) of 0 pg/mL, an IFNγ ([2]; PBMC of subject HD 340) of 1 pg/mL and an IL6 ([2]; PBMC of subject HD 340) of 22 pg/mL. For the same sequence, the TNFα ([2]; PBMC of subject HD 340) was 8 pg/mL, the IFNγ ([2]; PBMC of subject HD 664) was -3 pg/mL and the IL6 ([2]; PBMC of subject HD 664) was 0 pg/mL. For the same sequence, the TNFα ([2]; PBMC of subject HD 664) was 0 pg/mL.
